Test results as given in PubChem BioAssay AID977614 (Broad Institute, 2014).
The source made the active and inactive calls.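 Rule for the calls: active = parasite count per well reduced by over 3 SD from the mean, with host cell number above 80% of untreated; inactive = the rest.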

System: L. donovani amastigotes in THP-1 macrophages, DAPI imaging, 72 h
Assay: antileishmanial activity in infected macrophages – imaging, THP-1 host macrophages, single concentration (AID 977614);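 note: signal is the parasite per host cell ratio from DAPI stained kinetoplasts and nuclei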

SMILES	AC50
C[C@@H]1CN([C@@H](C)CO)C(=O)CCCn2cc(nn2)CO[C@@H]1CN(C)Cc1ccccc1	> 10 µM (inactive)
CNC[C@H]1OCc2cnnn2CCCC(=O)N([C@@H](C)CO)C[C@H]1C	> 10 µM (inactive)
O=C(c1ccccc1F)N1C[C@@H]2[C@H](c3ccccc31)[C@H](CO)N2Cc1ccc2c(c1)OCO2	> 10 µM (inactive)
C[C@@H]1CN([C@H](C)CO)C(=O)CCCn2nncc2CO[C@H]1CN(C)C(=O)Nc1cccc(Oc2ccccn2)c1	> 10 µM (inactive)
CCCC(=O)N1C[C@H]2[C@@H](c3ccccc31)[C@@H](CO)N2Cc1cocn1	> 10 µM (inactive)
C[C@H]1CN([C@@H](C)CO)C(=O)CCCn2nncc2CO[C@H]1CN(C)Cc1ccccc1C(=O)O	> 10 µM (inactive)
CNC[C@H]1OCc2cn(nn2)CCCC(=O)N([C@@H](C)CO)C[C@H]1C	> 10 µM (inactive)
O=C(NC[C@H]1[C@H](c2ccccc2)[C@H](CO)N1Cc1ccccn1)C1CCCC1	> 10 µM (inactive)
C[C@@H]1CN([C@H](C)CO)C(=O)CCCn2nncc2CO[C@H]1CN(C)Cc1ccc(C(=O)Nc2ccccc2N)cc1	> 10 µM (inactive)
C/C=C/c1ccc([C@H]2[C@@H](CNC(C)C)N(C(=O)c3ccccn3)[C@H]2CO)cc1	> 10 µM (inactive)
C[C@H](CO)N1C[C@H](C)[C@H](CN(C)Cc2ccc3cccnc3c2)OCc2cnnn2CCCC1=O	> 10 µM (inactive)
O=C(CC(F)(F)F)N1C[C@@H]2[C@H](c3ccccc31)[C@H](CO)N2C(=O)C1CCCCC1	> 10 µM (inactive)
C[C@@H]1CN([C@H](C)CO)C(=O)CCCn2nncc2CO[C@@H]1CN(C)Cc1ccc2cccnc2c1	> 10 µM (inactive)
CNC[C@@H]1OCc2cn(nn2)CCCC(=O)N([C@H](C)CO)C[C@@H]1C	> 10 µM (inactive)
CC(=O)N(CC1CCC1)C[C@@H]1N[C@@H](CO)[C@H]1c1ccc(C2=CCCC2)cc1	> 10 µM (inactive)
C[C@H]1CN([C@@H](C)CO)C(=O)CCCn2nncc2CO[C@H]1CN(C)C(=O)Nc1cccc(Oc2ccccn2)c1	> 10 µM (inactive)
C[C@@H]1CN([C@@H](C)CO)C(=O)CCCn2nncc2CO[C@@H]1CN(C)C(=O)NC1CCCC1	> 10 µM (inactive)
O=S(=O)(NC[C@@H]1[C@@H](c2ccccc2)[C@@H](CO)N1CC1CC1)c1ccccc1	> 10 µM (inactive)
CCC(=O)N1[C@H](CO)[C@@H](c2ccccc2)[C@H]1CN(C)C(=O)CN1CCOCC1	> 10 µM (inactive)
CC(=O)N1[C@@H](CO)[C@@H]2c3ccccc3N(C(=O)c3ccc(F)cc3)C[C@@H]21	> 10 µM (inactive)
O=C(Cc1ccccc1)N1C[C@@H]2[C@H](c3ccccc31)[C@@H](CO)N2S(=O)(=O)c1ccccc1	> 10 µM (inactive)
O=C(NC[C@@H]1[C@H](c2ccccc2)[C@H](CO)N1Cc1ccccn1)C1CCCC1	> 10 µM (inactive)
CCCNC(=O)N1[C@H](CO)[C@H](c2ccc(-c3ccc(C#N)cc3)cc2)[C@@H]1CNC	> 10 µM (inactive)
O=C(Nc1ccc(F)cc1)N1C[C@@H]2[C@H](c3ccccc31)[C@@H](CO)N2C(=O)c1ccncc1	> 10 µM (inactive)
C[C@H](CO)N1C[C@H](C)[C@@H](CN(C)C(=O)Nc2ccc3c(c2)OCO3)OCc2cn(nn2)CCCC1=O	> 10 µM (inactive)
C[C@@H]1CN([C@@H](C)CO)C(=O)CCCn2nncc2CO[C@@H]1CN(C)C(=O)c1cc(-c2ccccc2)on1	> 10 µM (inactive)

SMILES	AC50
CN(Cc1ccccc1F)C[C@H]1[C@@H](c2ccccc2)[C@@H](CO)N1S(C)(=O)=O	> 10 µM (inactive)
O=C(c1ccccn1)N1C[C@H]2[C@@H](c3ccccc31)[C@@H](CO)N2C(=O)Nc1ccccc1Cl	> 10 µM (inactive)
CN1C[C@@H]2[C@H](c3ccccc31)[C@@H](CO)N2Cc1ccccc1Cl	> 10 µM (inactive)
C[C@H]1CN([C@@H](C)CO)C(=O)CCCn2nncc2CO[C@@H]1CN(C)C(=O)Nc1ccc(-c2cccs2)cc1	> 10 µM (inactive)
C[C@H]1CN([C@@H](C)CO)C(=O)CCCn2nncc2CO[C@H]1CN(C)C(=O)Nc1ccnc(N2CCOCC2)c1	> 10 µM (inactive)
COCC(=O)N(C[C@@H]1[C@@H](c2ccccc2)[C@@H](CO)N1C(=O)NC(C)C)C(C)C	> 10 µM (inactive)
C[C@H]1CN([C@@H](C)CO)C(=O)CCCn2nncc2CO[C@H]1CN(C)C(=O)c1ccc2ccn(C)c2c1	> 10 µM (inactive)
CC(C)NC(=O)N1[C@H](CO)[C@@H]2c3ccccc3NC[C@@H]21	> 10 µM (inactive)
C/C=C/c1ccc([C@@H]2[C@@H](CO)N[C@@H]2CN(CC(C)C)C(=O)c2ccccn2)cc1	> 10 µM (inactive)
O=C(NC[C@@H]1[C@@H](c2ccccc2)[C@@H](CO)N1Cc1ccccn1)C1CCCC1	> 10 µM (inactive)
C[C@H]1CN([C@@H](C)CO)C(=O)CCCn2cc(nn2)CO[C@@H]1CN(C)S(=O)(=O)c1cccc(C#N)c1	> 10 µM (inactive)
CC(C)NC(=O)N1[C@H](CO)[C@@H]2c3ccccc3N(C)C[C@@H]21	> 10 µM (inactive)
CCN(C[C@@H]1[C@@H](c2ccccc2)[C@@H](CO)N1C(C)=O)C(=O)NC1CCCC1	> 10 µM (inactive)
Cc1noc(C)c1NC(=O)N(C)C[C@H]1OCc2cn(nn2)CCCC(=O)N([C@@H](C)CO)C[C@@H]1C	> 10 µM (inactive)
C[C@@H]1CN([C@H](C)CO)C(=O)CCCn2nncc2CO[C@@H]1CN(C)CC1CCCCC1	> 10 µM (inactive)
CCN(C[C@@H]1[C@H](c2ccccc2)[C@@H](CO)N1CC1CC1)C(=O)c1ccccn1	> 10 µM (inactive)
C/C=C/c1ccc([C@@H]2[C@@H](CO)N[C@@H]2CN(CC)C(=O)CN2CCOCC2)cc1	> 10 µM (inactive)
CC(=O)N1[C@H](CN(C)S(=O)(=O)c2ccccc2)[C@H](c2ccccc2)[C@@H]1CO	> 10 µM (inactive)
COc1cccc(NC(=O)N2[C@@H](CO)[C@H](c3ccccc3)[C@@H]2CNCC(C)C)c1	> 10 µM (inactive)
C[C@@H]1CN([C@@H](C)CO)C(=O)CCCn2cc(nn2)CO[C@H]1CN(C)C(=O)Oc1ccc2ccccc2c1	> 10 µM (inactive)
C[C@H](CO)N1C[C@H](C)[C@H](CN(C)C(=O)Nc2ccc3c(c2)OCO3)OCc2cn(nn2)CCCC1=O	> 10 µM (inactive)
CC(C)CN(C[C@H]1N[C@H](CO)[C@@H]1c1ccccc1)C(=O)C1CCCCC1	> 10 µM (inactive)
COCC(=O)NC[C@@H]1[C@H](c2ccccc2)[C@@H](CO)N1C(=O)c1ccccc1	> 10 µM (inactive)
O=C(CC1CC1)N1[C@H](CO)[C@H]2c3ccccc3N(S(=O)(=O)c3ccccc3F)C[C@H]21	> 10 µM (inactive)
C[C@H]1CN([C@@H](C)CO)C(=O)CCCn2nncc2CO[C@@H]1CN(C)Cc1ccccc1C(=O)O	> 10 µM (inactive)
COc1ccc(C(=O)N2C[C@@H]3[C@H](c4ccccc42)[C@H](CO)N3C(=O)NC(C)C)cc1	> 10 µM (inactive)

SMILES	AC50
CN1C[C@@H]2[C@H](c3ccccc31)[C@@H](CO)N2C(=O)C1CCOCC1	> 10 µM (inactive)
COc1ccccc1CN1[C@H](CO)[C@@H]2c3ccccc3N(C(=O)C3CCOCC3)C[C@@H]21	> 10 µM (inactive)
C[C@H]1CN([C@@H](C)CO)C(=O)CCCn2cc(nn2)CO[C@H]1CN(C)C(=O)Nc1cccc2ccccc12	> 10 µM (inactive)
CCS(=O)(=O)N(C)C[C@@H]1N[C@H](CO)[C@@H]1c1ccc(C#CC(C)C)cc1	> 10 µM (inactive)
O=C(Nc1ccc(F)cc1)N1C[C@H]2[C@@H](c3ccccc31)[C@H](CO)N2C(=O)c1ccncc1	> 10 µM (inactive)
Cc1noc(C)c1NC(=O)N(C)C[C@@H]1OCc2cnnn2CCCC(=O)N([C@@H](C)CO)C[C@H]1C	> 10 µM (inactive)
CC(=O)N1[C@H](CNC(=O)C2CC2)[C@H](c2ccc(-c3ccccc3)cc2)[C@@H]1CO	> 10 µM (inactive)
C[C@@H]1CN([C@@H](C)CO)C(=O)CCCn2nncc2CO[C@H]1CN(C)C(=O)Nc1ccccc1C(F)(F)F	> 10 µM (inactive)
C[C@@H]1CN([C@@H](C)CO)C(=O)CCCn2nncc2CO[C@H]1CN(C)C(=O)Nc1ccc2c(c1)OCCO2	> 10 µM (inactive)
C[C@H](CO)N1C[C@H](C)[C@@H](CN(C)Cc2cccc(C(F)(F)F)c2)OCc2cnnn2CCCC1=O	> 10 µM (inactive)
C[C@@H]1CN([C@@H](C)CO)C(=O)CCCn2nncc2CO[C@@H]1CN(C)Cc1ccc2cccnc2c1	> 10 µM (inactive)
CCC(=O)N1[C@H](CO)[C@H](c2ccccc2)[C@H]1CN(CC1CCC1)S(C)(=O)=O	> 10 µM (inactive)
O=S(=O)(c1ccccc1)N1[C@@H](CO)[C@@H]2c3ccccc3NC[C@@H]21	> 10 µM (inactive)
CCS(=O)(=O)N(C)C[C@@H]1N[C@H](CO)[C@@H]1c1ccc(-c2ccccc2F)cc1	> 10 µM (inactive)
C[C@@H]1CN([C@H](C)CO)C(=O)CCCn2nncc2CO[C@@H]1CN(C)C(=O)Nc1ccc(-c2cccs2)cc1	> 10 µM (inactive)
O=C(NC[C@@H]1[C@H](c2ccccc2)[C@@H](CO)N1Cc1cccnc1)c1ccccn1	> 10 µM (inactive)
CN(C[C@H]1[C@@H](c2ccc(C3=CCCC3)cc2)[C@@H](CO)N1CCC(F)(F)F)S(C)(=O)=O	> 10 µM (inactive)
O=C(C1CCC1)N1C[C@@H]2[C@H](c3ccccc31)[C@H](CO)N2Cc1ccccc1	> 10 µM (inactive)
O=C(C1CCC1)N1C[C@H]2[C@@H](c3ccccc31)[C@@H](CO)N2C(=O)Nc1cccc(F)c1	> 10 µM (inactive)
O=C(CC(F)(F)F)N1C[C@H]2[C@@H](c3ccccc31)[C@H](CO)N2Cc1cccnc1	> 10 µM (inactive)
Cc1noc(C)c1S(=O)(=O)N(C)C[C@@H]1OCc2cn(nn2)CCCC(=O)N([C@H](C)CO)C[C@@H]1C	> 10 µM (inactive)
C/C=C/c1ccc([C@@H]2[C@@H](CO)N(C(C)=O)[C@H]2CNC(=O)c2ccccc2)cc1	> 10 µM (inactive)
CCCC(=O)N1C[C@H]2[C@@H](c3ccccc31)[C@H](CO)N2C(=O)Nc1ccc(F)cc1	> 10 µM (inactive)
O=C(C1CCOCC1)N1C[C@@H]2[C@H](c3ccccc31)[C@H](CO)N2C(=O)Cc1ccccn1	> 10 µM (inactive)
